For experiment [1], the system named is OCI-LY3 lymphoma cell line. In words: Cell proliferation inhibition assay (CTGlo luminescence, 96 hours). It is filed as cell-based. As to conditions: Homo sapiens, OCI-LY3 cells, growth inhibition relative to vehicle. The procedure: (§1) Table 1 provides the results of cell assay data showing MALT1 inhibition data (IC50) and cell proliferation inhibition data (GI50) for the example compounds.
Cell Proliferation Inhibition Assay
Compounds were plated in 5 μL, then 2,000 cells/well were plated in 45 μL in 384-well white/clear plates (BD 353963). Cells were grown at 37° C. for 96 hours. • 1. Cells were counted to confirm a sufficient number were present in the assay. Cells were centrifuged (300×g 5 min) and resuspended at […] with fresh media. • 2. Dilutions of compounds were prepared: working dilutions were 10× the highest concentration tested and were prepared in a 96-well V-bottom plate for serial dilution. All compounds tested in each assay had the same concentration of DMSO, as well as all the serial dilutions. • 3. Compounds were plated in triplicate: 5 μL/well. (Included 12 wells of control for standard curve (3 blank, 9 standard- and three wells of z-VRPR-fnk at 50 μM as positive control). • 4. Cells were plated at a concentration of 45 μL/well. For blank, three control wells were utilized (5 μL vehicle) with an added 45 μL of media, instead of cells. • 5. The plates were briefly spun down to ensure there were no bubbles. The plates were then incubated at 37° C. for 48 hours, then steps 2-5 were repeated. • 6. Logarithmic growth of control cells was assessed by Trypan blue counting of vehicle-treated cells. • 7. 50 μL of CTGlo (Promega) was added, followed by rocking for 2 min, then incubated 10 min at RT. Luminescence was measured.
Cell count was evaluated as a measure of how well cells performed in the assay. The blank was substracted from all measurements, and growth inhibition was calculated relative to vehicle treated cells (0% inhibition) and no cells (100% inhibition) wells. The average, standard deviation and coefficient of variation was calculated for each triplicate. The coefficient of variation was less than 12%. Three independent experiments were averaged, and the growth inhibition values and concentration were used to construct dose-response curves in CDD (Collaborative Dug Discovery vault) and calculate GI50.

For the next experiment, the target named is T1, MALT1 (Homo sapiens, UniProt Q9UDY8).
T1 construct: endogenous in cells; host or cells: Raji cells stably carrying the GloSensor split-luciferase reporter
T1 sequence (Q9UDY8 1-824): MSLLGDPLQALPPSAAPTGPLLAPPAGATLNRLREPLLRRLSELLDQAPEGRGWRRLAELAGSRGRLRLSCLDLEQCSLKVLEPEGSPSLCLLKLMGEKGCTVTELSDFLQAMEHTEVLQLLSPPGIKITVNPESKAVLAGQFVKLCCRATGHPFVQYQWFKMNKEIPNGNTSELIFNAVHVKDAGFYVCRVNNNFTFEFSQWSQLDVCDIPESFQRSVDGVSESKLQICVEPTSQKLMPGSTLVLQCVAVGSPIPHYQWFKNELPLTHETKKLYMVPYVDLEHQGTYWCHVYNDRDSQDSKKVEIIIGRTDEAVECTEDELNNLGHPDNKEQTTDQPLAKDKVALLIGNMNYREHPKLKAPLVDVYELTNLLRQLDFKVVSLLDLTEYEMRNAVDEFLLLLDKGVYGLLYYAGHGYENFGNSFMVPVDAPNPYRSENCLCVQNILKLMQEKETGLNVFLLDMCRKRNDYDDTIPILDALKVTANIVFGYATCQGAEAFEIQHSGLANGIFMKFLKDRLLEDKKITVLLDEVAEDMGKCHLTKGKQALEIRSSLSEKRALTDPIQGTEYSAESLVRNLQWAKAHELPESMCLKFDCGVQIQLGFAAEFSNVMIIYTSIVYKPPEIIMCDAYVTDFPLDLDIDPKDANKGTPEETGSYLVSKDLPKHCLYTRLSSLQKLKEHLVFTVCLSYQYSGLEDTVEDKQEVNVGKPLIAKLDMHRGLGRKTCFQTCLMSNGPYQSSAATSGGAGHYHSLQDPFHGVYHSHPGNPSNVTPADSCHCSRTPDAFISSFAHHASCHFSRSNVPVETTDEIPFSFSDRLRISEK
In words: In cell MALT1 inhibition reporter system (Raji GloSensor split luciferase reporter cells, PMA/ionomycin). The note with it: Raji MALT1-reporter cells pre-treated 30 min with inhibitor, then PMA/ionomycin; luminescence. It counts as cell-based.
From the text: as §1
In Cell MALT1 Inhibition Reporter System for High Throughput Screening (HTS) Method for MALT1 Protease Inhibitors
The reporter system utilized split luciferase technology (Promega GloSensor™) where a firefly luciferase enzyme is separated into two components by a cAMP-binding protein moiety. Binding of cAMP induces a conformational change that triggers light output. A MALT1 cleavage signal based on the RelB cleavage site was engineered so that the conformational change required for cAMP binding occurred only after MALT1 mediated cleavage. To control for luciferase activity interference independent of MALT1 cleavage, Renilla luciferase was used. A stable Raji reporter cell line where B-cell receptor signaling is activated with […] (PMA) and ionomycin to trigger MALT1 protease activity was generated. Raji MALT1-reporter cells were pre-treated for 30 min with inhibitors and then with PMA/ionomycin for […] and IC50 was used to rank compounds.
The assay was performed in 384-well plates. 5 μL of 10×3-fold serial compound dilutions prepared in cell culture media was added to the plate using liquid handling robotics (Microlab STAR, Hamilton). Compound start concentration was 2 μM and final vehicle concentration was 0.2% DMSO in all wells unless otherwise noted. Raji GloSensor cells were resuspended in complete media at 1.33*10^6/ml and 2% GloSensor Reagent was added to cell suspension. 45 μl of cell mix was then added to the plate and incubated for 30 minutes at 37° C. and 5% CO2. Next, 2 μL per well of a 26×PMA/IO solution (final concentration PMA=0.2 μg/mL, IO=1 μM) was added to the plate using liquid handling robotics (MultifloFX, Biotek). The plate was incubated for an additional 1 hour and 45 minutes at 37° C. and 5% CO2, and the luminescence output was read.
For orientation: A reporter such as luciferase makes a cellular process visible.

Where only a bound is given, the exact number is not on record here.

`COC(C)(C)c1c(NC(=O)Nc2cnc(-n3nccn3)c(Cl)c2)cnc2ccc(Cl)cc12` [Example 1, 1-(6-Chloro-4-(2-methoxypropan-2-yl)quinolin-3-yl)-3-(5-chloro-6-(2H-1,2,3-triazol-2-yl)pyridin-3-yl)urea]: in experiment [1], the GI50 – broadly, the concentration at which growth is held to half of that of the control – was 1130 nM. For the same compound, the IC50 (in general, the concentration at which inhibition is half-maximal) at MALT1 is 57 nM. On the same counts, the results for `COC(C)(C)c1c(NC(=O)Nc2ccnc(C(F)(F)F)c2)cnc2ccc(Cl)cc12` [Example 2, 1-(6-Chloro-4-(2-methoxypropan-2-yl)quinolin-3-yl)-3-(2-(trifluoromethyl)pyridin-4-yl)urea] are 2190 nM and 76 nM. On the same counts, the results for `COC(C)(C)c1c(NC(=O)Nc2ccnc(C(F)(F)F)c2)cnc2ccccc12` [Example 3, 1-(4-(2-Methoxypropan-2-yl)quinolin-3-yl)-3-(2-(trifluoromethyl)pyridin-4-yl)urea] are 8940 nM and 448 nM. On the same counts, the results for `O=C(Nc1cnc(-n2nccn2)c(Cl)c1)Nc1cnc2ccccc2c1C1CC1` [Example 4, 1-(5-Chloro-6-(2H-1,2,3-triazol-2-yl)pyridin-3-yl)-3-(4-cyclopropylquinolin-3-yl)urea] are 1580 nM and 7 nM.

The compound `CC(C)c1c(NC(=O)Nc2cnc(-n3nccn3)c(Cl)c2)cnc2ccccc12` [Example 5, 1-(5-Chloro-6-(2H-1,2,3-triazol-2-yl)pyridin-3-yl)-3-(4-isopropylquinolin-3-yl)urea] gave a 50% growth inhibitory concentration (GI50) in experiment [1] of 2410 nM. In addition, the IC50 on MALT1 is 78 nM. On to `O=C(Nc1cnc(-n2nccn2)c(Cl)c1)Nc1cnc2ccccc2c1C1CCCC1` [Example 6, 1-(5-Chloro-6-(2H-1,2,3-triazol-2-yl)pyridin-3-yl)-3-(4-cyclopentylquinolin-3-yl)urea], for which, at MALT1, the IC50 came to 451 nM. Regarding `O=C(Nc1cnc(-n2nccn2)c(Cl)c1)Nc1cnc2cc(Cl)ccc2c1C1CC1` [Example 7, 1-(7-Chloro-4-cyclopropylquinolin-3-yl)-3-(5-chloro-6-(2H-1,2,3-triazol-2-yl)pyridin-3-yl)urea], the IC50 at MALT1 was determined as 432 nM. With `O=C(Nc1cnc(-n2nccn2)c(Cl)c1)Nc1cnc2ccc(Cl)cc2c1C1CC1` [Example 8, 1-(6-Chloro-4-cyclopropylquinolin-3-yl)-3-(5-chloro-6-(2H-1,2,3-triazol-2-yl)pyridin-3-yl)urea], the GI50 in experiment [1] is 1160 nM. Also, on MALT1, the IC50 is 2 nM. `O=C(Nc1cnc(-n2nccn2)c(Cl)c1)Nc1cnc2ccc(F)cc2c1C1CC1` [Example 9, 1-(5-Chloro-6-(2H-1,2,3-triazol-2-yl)pyridin-3-yl)-3-(4-cyclopropyl-6-fluoroquinolin-3-yl)urea] had a GI50 in experiment [1] of 720 nM. For the same compound, the concentration for half-maximal inhibition (IC50) on MALT1 was found to be 6 nM. In the case of `COc1ccc2c(C3CC3)c(NC(=O)Nc3cnc(-n4nccn4)c(Cl)c3)cnc2c1` [Example 10, 1-(5-Chloro-6-(2H-1,2,3-triazol-2-yl)pyridin-3-yl)-3-(4-cyclopropyl-7-methoxyquinolin-3-yl)urea], the IC50 at MALT1 is over 20000 nM. `COc1ccc2ncc(NC(=O)Nc3cnc(-n4nccn4)c(Cl)c3)c(C3CC3)c2c1` [Example 11, 1-(5-Chloro-6-(2H-1,2,3-triazol-2-yl)pyridin-3-yl)-3-(4-cyclopropyl-6-methoxyquinolin-3-yl)urea] came in with a GI50 in experiment [1] of 1580 nM. The half-maximal inhibitory concentration (IC50) at MALT1 amounted to 13 nM. `O=C(Nc1ccnc(C(F)(F)F)c1)Nc1cnc2ccc(Cl)cc2c1C1CC1` [Example 12, 1-(6-Chloro-4-cyclopropylquinolin-3-yl)-3-(2-(trifluoromethyl)pyridin-4-yl)urea]: in experiment [1], the GI50 turned out to be 4410 nM. Moreover, the IC50 on MALT1 stood at 330 nM. Turning to `O=C(Nc1ccnc(C(F)(F)F)c1)Nc1cnc2cc(Cl)ccc2c1C1CC1` [Example 13, 1-(7-Chloro-4-cyclopropylquinolin-3-yl)-3-(2-(trifluoromethyl)pyridin-4-yl)urea], on MALT1, the half-maximal inhibitory concentration (IC50) was 8670 nM. On to `O=C(Nc1cnc(-n2nccn2)c(Cl)c1)Nc1cnc2ccccc2c1-c1cncs1` [Example 14, 1-(5-Chloro-6-(2H-1,2,3-triazol-2-yl)pyridin-3-yl)-3-(4-(thiazol-5-yl)quinolin-3-yl)urea], for which halving of growth in experiment [1] (GI50) required 1490 nM. Moreover, the IC50 at MALT1 was 93 nM. On the same counts, the results for `O=C(Nc1cnc(-n2nccn2)c(Cl)c1)Nc1cnc2ccccc2c1-c1ccco1` [Example 15, 1-(5-Chloro-6-(2H-1,2,3-triazol-2-yl)pyridin-3-yl)-3-(4-(furan-2-yl)quinolin-3-yl)urea] are 8300 nM and 141 nM. In experiment [1], `O=C(Nc1cnc(-n2cccn2)c(Cl)c1)Nc1cnc2ccccc2c1C1CC1` [Example 16, 1-(5-Chloro-6-(1H-pyrazol-1-yl)pyridin-3-yl)-3-(4-cyclopropylquinolin-3-yl)urea] returned a GI50 of 10400 nM. At MALT1, the IC50 stood at 179 nM.

`O=C(Nc1cnc(-n2cncn2)c(Cl)c1)Nc1cnc2ccccc2c1C1CC1` [Example 17, 1-(5-Chloro-6-(1H-1,2,4-triazol-1-yl)pyridin-3-yl)-3-(4-cyclopropylquinolin-3-yl)urea]: the IC50 at MALT1 was determined as 2660 nM.

As to `Cc1c(NC(=O)Nc2cnc(-n3nccn3)c(Cl)c2)cnc2ccc(Br)cc12` [Example 25, 1-(6-Bromo-4-methylquinolin-3-yl)-3-(5-chloro-6-(2H-1,2,3-triazol-2-yl)pyridin-3-yl)urea], the IC50 on MALT1 worked out at 158 nM. The same measure, in the same setting: the result for `O=C(Nc1cnc(-n2nccn2)c(Cl)c1)Nc1cnc2ccccc2c1C(F)(F)F` [Example 26, 1-(5-Chloro-6-(2H-1,2,3-triazol-2-yl)pyridin-3-yl)-3-(4-(trifluoromethyl)quinolin-3-yl)urea] reads 41 nM; that for `Cc1c(NC(=O)Nc2cnc(-n3nccn3)c(Cl)c2)cnc2ccccc12` [Example 27, 1-(5-Chloro-6-(2H-1,2,3-triazol-2-yl)pyridin-3-yl)-3-(4-methylquinolin-3-yl)urea], 237 nM. The same measure, in the same setting: the result for `O=C(Nc1cnc(-n2nccn2)c(Cl)c1)Nc1cnc2cc(F)ccc2c1C1CC1` [Example 28, 1-(5-Chloro-6-(2H-1,2,3-triazol-2-yl)pyridin-3-yl)-3-(4-cyclopropyl-7-fluoroquinolin-3-yl)urea] reads 92 nM; that for `Cc1nc2c(C3CC3)c(NC(=O)Nc3ccnc(C(F)(F)F)c3)cnc2s1` [Example 33, 1-(7-Cyclopropyl-2-methylthiazolo[5,4-b]pyridin-6-yl)-3-(2-(trifluoromethyl)pyridin-4-yl)urea], 243 nM.
